Laboratory results: publication PMC5581522 (Cancer Science, 2017)
Entries after “also recorded” stand apart in the source; their conditions may differ. Like-named read-outs stand apart in the source and are kept apart here. Marks after values point to notes of the source that are not given here.

What was measured:
[1] = Phase 1 tolerability and safety (DLT, TEAEs, NCI CTCAE v4.0); format: in vivo, Japanese patients
Procedure: Eligible patients were assigned to one of two treatment groups (dose levels). […] Three to six patients were enrolled in each treatment group. Dose escalation was carried out according to a 3 + 3 design to define dose‐limiting toxicities (DLTs), and the maximum administered dose/recommended phase 2 dose (RP2D). […] Patients received treatment for a maximum of 30 cycles or until treatment discontinuation. […] Treatment could be postponed for up to 28 days due to toxicity; longer toxicity‐related delays would lead to study discontinuation.
The maximum tolerated dose (MTD) was defined as the highest dose level at which fewer than two of total six patients or <33% of patients (if the cohort was expanded beyond six patients) experienced a DLT. The RP2D was determined based on the observed DLTs and identified MTD; RP2D would not be dosed higher than the MTD. If the MTD was not reached, the RP2D was defined based on the safety and PK data. Prophylactic use of antiemetics and colony‐stimulating factors was not permitted during the DLT‐evaluation period, in order to clearly define the safety profile in Japanese patients.
The safety of each treatment group was assessed by evaluating study drug exposure, AEs, serious AEs (SAEs), all deaths, changes in laboratory determinations, and vital signs parameters. […] AEs were assessed according to the NCI CTCAE version 4.0.29 An independent data monitoring committee reviewed safety data for DLT evaluation.

[2] = system: BRCA‐mutated tumors; details: phase 1, single agent; cited from earlier work
[3] = Plasma pharmacokinetics, cycle 1 day 1, noncompartmental; format: in vivo, Japanese patients; details: for half-life / AUC(0-inf) / Cmax / AUC(0-t): human, plasma; for half-life: harmonic mean ± pseudo SD; for AUC(0-inf) / Cmax / AUC(0-t): mean ± SD; for AUC(0-t): read-out: AUC0–8
Source text: Noncompartmental methods were used to determine the maximum observed plasma concentration (C max), the time to C max (T max), the area under the plasma concentration‐time curve (AUC), and terminal elimination half‐life (t 1/2).

[4] = system: recurrent ovarian cancer and germline BRCA1 and BRCA2 mutations; details: cited from earlier work
[5] = system: advanced solid tumors; assay: Preliminary antitumor efficacy (RECIST version 1.1, TTP); format: in vivo, Japanese patients; details: for ORR: measurable disease
Procedure: To determine preliminary antitumor efficacy, baseline radiographic tumor assessments were conducted within 3 weeks prior to registration and thereafter every 8 weeks from cycle 1 day 1 and at the final visit, using the Response Evaluation Criteria In Solid Tumors (RECIST) version 1.1.30 In addition, the investigator evaluated the patient for evidence of clinical disease progression at each visit. Changes in measurable tumor lesions were assessed to determine the response rate, defined as proportion of patients with complete response (CR) or partial response (PR), and time to progression (TTP), defined as the number of days from the date the patient was dosed to the date the patient experienced an event of progressive disease (PD). […] Changes from baseline in performance status were analyzed.
Unless otherwise noted, for all statistical analyses, statistical significance was determined by a two‐sided P‐value ≤0.05. Descriptive statistics were used to describe baseline demographic variables, and summary statistics were computed for PK variables at each sampling time. PK variables were determined per patient and dose level. The safety of veliparib was assessed by evaluating veliparib exposure, AEs, SAEs, all deaths, and changes in laboratory determinations and vital sign parameters. The proportion of patients with CR or PR was estimated with a 95% confidence interval (CI) constructed for the estimated proportion. The distribution of TTP was estimated using Kaplan‐Meier methodology.

[6] = system: cancer antigen 125 (CA‐125); assay: CA-125 tumor marker response (GCIG definition); format: in vivo, Japanese patients
Procedure: All enrolled patients with ovarian cancer or peritoneal cancer had measurements of cancer antigen 125 (CA‐125) on day 1 of cycle 1, every cycle (28 days) thereafter, and at the final visit. CA‐125 response was measured according to the Gynecologic Cancer InterGroup (GCIG) CA‐125 response definition.31

[7] = 200 mg oral, cycle 1 day 1, n = 4
[8] = 400 mg oral, cycle 1 day 1, n = 9
[9] = 400 mg oral, cycle 1 day 1, n = 12
[10] = 14 patients with measurable disease

C[C@]1(c2nc3c(C(N)=O)cccc3[nH]2)CCCN1 [veliparib]
AEs / toxicities leading to death ([1]; all patients): No toxicities leading to death; also recorded: no AEs or SAEs leading to death | patients who discontinued treatment due to AEs/toxicity ([1]; human, in vivo): 6% | patients with a grade ≥3 AE / toxicity ([1]; human, in vivo): 50% | patients with abdominal pain ([1]; human, in vivo): 31.3% | patients with at least one grade ≥1 TEAE ([1]; human, in vivo): 100% | patients with decreased appetite ([1]; human, in vivo): 62.5% | patients with diarrhea ([1]; human, in vivo): 31.3% | patients with dysgeusia ([1]; human, in vivo): 31.3% | patients with fatigue ([1]; human, in vivo): 25% | patients with insomnia ([1]; human, in vivo): 25% | patients with malaise ([1]; human, in vivo): 31.3% | patients with nausea ([1]; human, in vivo): 93.8% | patients with neutropenia ([1]; human, in vivo): 25% | patients with thrombocytopenia ([1]; human, in vivo): 25% | patients with vomiting ([1]; human, in vivo): 93.8% | recommended phase 2 dose (RP2D) ([1]; human, in vivo, po, 28 days): 400 mg BID | anemia leading to dose interruption, reduction, or delay ([1]; in vivo): one patient | decreased appetite leading to dose interruption, reduction, or delay ([1]; in vivo): one patient | essential tremor leading to dose interruption, reduction, or delay ([1]; in vivo): one patient | fatigue leading to dose interruption, reduction, or delay ([1]; in vivo): three patients | nausea leading to dose interruption, reduction, or delay ([1]; in vivo): three patients | neutropenia leading to dose interruption, reduction, or delay ([1]; in vivo): three patients | patients experiencing a SAE ([1]; in vivo): two patients | patients with a dose‐limiting toxicity (DLT) ([1]; in vivo): one patient | thrombocytopenia leading to dose interruption, reduction, or delay ([1]; in vivo): three patients | vomiting leading to dose interruption, reduction, or delay ([1]; in vivo): two patients | clinical benefit rate (called DCR) [2]: 68% | objective response rate (ORR) [2]: 40% | half-life [3, 7]: 4.6 ± 1.1 h | AUC(0-inf) [3, 7]: 13600 ± 6240 ng·h/mL | Cmax [3, 7]: 2060 ± 1390 ng/mL | AUC(0-t) [3, 7]: 8890 ± 3770 ng·h/mL | half-life [3, 8]: 4.6 ± 1.3 h | AUC(0-inf) [3, 8]: 29500 ± 9820 ng·h/mL | Cmax [3, 9]: 3280 ± 1040 ng/mL | AUC(0-t) [3, 9]: 16600 ± 3590 ng·h/mL | increase of C max and AUC with dose ([3]; single‐dose oral 200 mg and 400 mg): dose‐proportional | DCR ([4]; GOG‐280 study, germline BRCA1 or BRCA2 mutation): 74.0% | patients with objective response ([4]; n = 50, 90% CI: 16–38%): 26% | CR (number of patients) ([4]; n = 50): 2 | PR (number of patients) ([4]; n = 50): 11 | median progression‐free survival ([4]; phase 2 monotherapy): 8.2 months | objective responses ([4]; platinum‐resistant patients, n = 6/30, 90% CI: 9–36%): 20% | objective responses ([4]; platinum‐sensitive patients, n = 7/20, 90% CI: 18–56%): 35% | Best response: CR ([5]; 200 mg BID (n = 4)): 0 n (%) | Best response: Not evaluable ([5]; 200 mg BID (n = 4)): 1 (25.0) n (%) | Best response: PD ([5]; 200 mg BID (n = 4)): 1 (25.0) n (%) | Best response: PR ([5]; 200 mg BID (n = 4)): 1 (25.0) n (%) | Best response: Stable disease ([5]; 200 mg BID (n = 4)): 1 (25.0) n (%) | DCR (CR + PR + stable disease) ([5]; 200 mg BID (n = 4)): 2 (50.0) n (%) | ORR ([5]; 200 mg BID (n = 4), 95% CI 0.6–80.6): 1 ^§ (25.0) [0.6–80.6] % | Median TTP ([5]; 200 mg dose cohort): 106 (range, 17–226) days | Best response: CR ([5]; 400 mg BID (n = 10)): 0 n (%) | Best response: Not evaluable ([5]; 400 mg BID (n = 10)): 0 n (%) | Best response: PD ([5]; 400 mg BID (n = 10)): 2 (20.0) n (%) | Best response: PR ([5]; 400 mg BID (n = 10)): 1 (10.0) n (%) | Best response: Stable disease ([5]; 400 mg BID (n = 10)): 7 (70.0) n (%) | DCR (CR + PR + stable disease) ([5]; 400 mg BID (n = 10)): 8 (80.0) n (%) | ORR ([5]; 400 mg BID (n = 10), 95% CI 0.3–44.5): 1 ^¶ (10.0) [0.3–44.5] % | Median TTP ([5]; 400 mg dose cohort): 170 (range, 48–340) days | disease control overall ([5]; 12 of 16 patients): 75% | patients progressed at first tumor assessment [5, 10]: 21.4% | patients with best objective response stable disease [5, 10]: eight patients | patients with best objective response PR ([5]; 14 patients with measurable disease, both with platinum sensitive ovarian cancer): Two patients | patients who discontinued treatment due to disease progression ([5]; all 16 patients): 75% | median percentage change from baseline in the sum of the tumor sizes of target lesions ([5]; all patients, range, −46.8% to +50.0%): −10.3% | disease control rate (DCR, CR + PR + stable disease) ([5]; patients with measurable disease (10/14)): 71.4% | Median TTP ([5]; platinum sensitive ovarian or peritoneal cancer, 400 mg BID, range, 48–340): 218 days | Best response: CR ([5]; total (n = 14)): 0 n (%) | Best response: Not evaluable ([5]; total (n = 14)): 1 (7.1) n (%) | Best response: PD ([5]; total (n = 14)): 3 (21.4) n (%) | Best response: PR ([5]; total (n = 14)): 2 (14.3) n (%) | Best response: Stable disease ([5]; total (n = 14)): 8 (57.1) n (%) | DCR (CR + PR + stable disease) ([5]; total (n = 14)): 10 (71.4) n (%) | ORR ([5]; total (n = 14), 95% CI 1.8–42.8): 14.3% | ORR ([5]; total (n = 14), 95% CI 1.8–42.8, listed as Veliparib): 2 (14.3) [1.8–42.8] % | best objective response ([5]; two patients without measurable disease at baseline): non‐CR/non‐PD | median change in CA‐125 level from baseline ([6]; all patients, range: −97.8% to +155.2%): −18.8% | patients achieving CA‐125 response ([6]; ovarian (n = 14) or primary peritoneal cancer (n = 1)): 20%
